Data taken from patent US20190369111A1, “MOLECULAR KINETICS EVALUATION METHOD AND SCREENING METHOD” (Tokyo University of Science Foundation, priority 2016, published 2019).

Molecular target: T1, MDM2 protein (Mus musculus, UniProt P23804)
T1 construct: administered intraperitoneally to C57BL/6J wild-type mice; from tissue; host or cells: C57BL/6J wild-type mice: liver, kidneys, spleen, heart
Assay: Degradation of MDM2 protein in each tissue of mouse after administration, Western blot analysis
Format: in vivo
Settings: 48 hours after administration
Description: TIBC-CANDDY_MLN was dissolved in DMSO immediately before administration, and then dissolved in corn oil (Code No. 25606-55, Nacalai Tesque) so that the concentration of DMSO was 10 vol %, and then a dose of 50 mg/kg body weight or 100 mg/kg body weight was administered intraperitoneally to C57BL/6J wild-type mice (7 to 8 weeks old, male) (CLEA Japan, Inc.) (n=3). As a control, an injection carrier (corn oil containing 10 vol % DMSO) was used. The mice were kept under an environment of ad libitum access to food and water. The mice were dissected under deep anesthesia by Somnopentyl (Kyoritsu Seiyaku Corporation) 48 hours after administration. Abdominal section was performed, and then the liver, kidneys, spleen, and heart were sequentially extracted and flash frozen in liquid nitrogen. Each tissue frozen in liquid nitrogen was stored in a deep freezer at −80° C.
The frozen tissues (spleen: 0.02 g, other tissues: 0.04 g) were each frozen and triturated, and then 1×TKM tissue lysis buffer (50 mM triethanolamine (pH 7.8), 50 mM KCl, 5 mM MgCl2, 0.25 M sucrose, 1 mM PMSF, protein inhibitors cocktail-EDTA free (Code No. 03969-21, Nacalai Tesque), 1 mM DTT, and 5 μL/mL recombinant RNase inhibitor (40 U/μL, Cat No. 2313A, Lot No. K8402DA, TAKARA Bio)) were added in an amount of 490 μL for the spleen and 980 μL for the others, and dissolved by rotation for 15 minutes (1 rpm, 25° C.). Then, the resultant product was subjected to centrifugation (at 3000 rpm×15 minutes, 4° C.), and the supernatants (each tissue extract) was collected. The concentration of proteins in each tissue extract was quantified with a spectrophotometer using each tissue extract that had been diluted 20 times using DEPC-treated water.
Each tissue extract collected was subjected to Western blot analysis. An SDS-PAGE gel was prepared using TGX™ FastCast™ Acrylamide Kit, 12% (Bio-Rad). Electrophoresis samples were prepared in a 6×SDS-PAGE sample buffer (62.5 mM Tris-HCl pH 6.8, 2% SDS, 5% 2-mercaptoethanol, 10% glycerol, 0.25% BPB), and placed on a heat block at 95° C. for 5 minutes. The electrophoresis samples prepared were applied at 50 μg/well for detecting GAPDH, and at 100 μg/well for other detection. […]
After electrophoresis, proteins were transferred to a PVDF membrane (Immobion™-P, Millipore) under conditions of 100 V and 1.5 hours using a tank-type blotting device and a transfer buffer (25 mM Tris-HCl, 195 mM glycine, 0.01% SDS, 15% methanol). […] Subsequently, the membrane was treated with a chemiluminescence reagent Immobilon™ Western (Millipore), and then chemiluminescence was detected using a lumino image analyzer LAS-3000 (FUJIFILM Corporation). Detected bands were quantified with an image processing software ImageJ (NIH).

T1 sequence (P23804 whole entry): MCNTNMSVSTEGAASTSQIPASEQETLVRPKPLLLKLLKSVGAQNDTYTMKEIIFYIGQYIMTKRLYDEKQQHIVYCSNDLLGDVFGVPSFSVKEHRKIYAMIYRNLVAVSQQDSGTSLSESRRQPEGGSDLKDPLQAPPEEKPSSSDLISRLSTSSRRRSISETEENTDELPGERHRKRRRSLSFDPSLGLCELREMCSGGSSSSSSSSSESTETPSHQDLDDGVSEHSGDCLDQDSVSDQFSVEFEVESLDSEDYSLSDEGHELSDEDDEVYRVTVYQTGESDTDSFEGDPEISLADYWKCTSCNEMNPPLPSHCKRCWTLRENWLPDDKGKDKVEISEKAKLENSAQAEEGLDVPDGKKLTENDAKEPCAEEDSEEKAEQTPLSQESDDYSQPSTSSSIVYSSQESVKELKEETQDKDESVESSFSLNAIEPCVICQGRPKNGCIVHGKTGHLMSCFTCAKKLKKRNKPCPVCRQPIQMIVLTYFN

amount of MDM2 protein in kidneys (intraperitoneal 50 or 100 mg/kg body weight, kidneys): reduction of the target was not found
amount of MDM2 protein in liver (intraperitoneal, only at a dose of 100 mg/kg body weight, liver): reduced slightly
Compound: CC(C)C[C@H](NC(=O)CNC(=O)c1cc(Cl)ccc1Cl)C(=O)NCCCCCCC(=O)Nc1ccc(C(=O)/C=C/c2ccc(I)cc2)cc1 [TIBC-CANDDY_MLN]
amount of MDM2 protein in heart (intraperitoneal 50 or 100 mg/kg body weight, heart): reduced in a concentration dependent manner
amount of MDM2 protein in spleen (intraperitoneal 50 or 100 mg/kg body weight, spleen): reduced in a concentration dependent manner
